These results are taken from ChEMBL document CHEMBL4609983, “Pan-specific and partially selective dye-labeled peptidic inhibitors of the polycomb paralog proteins” (Bioorg Med Chem, 2020).

SMILES strings stand for the structures. Non-standard residues stand in square brackets, D forms with d. Residues, ends and D or L forms follow the SMILES beside them. *: point of attachment. X1 = O=C(O)c1cc(NC(=S)*)ccc1-c1c2ccc(=O)cc-2oc2cc(O)ccc12; Lys(Me3) = C[N+](C)(C)CCCC[C@H](N)C(=O)O; Benzoyl(4-Br) = O=C(c1ccc(Br)cc1)*; Gly(cPent) = N[C@H](C(=O)O)C1CCCC1; Abu = CC[C@H](N)C(=O)O; βAla = NCCC(=O)O

For series [1], the species on record is Homo sapiens. In words: Selectivity ratio of Kd for CBX4 (unknown origin) to Kd for CBX8 (unknown origin).
The species entered for series [2] is Homo sapiens. In words: Selectivity ratio of Kd for CBX7 (unknown origin) to Kd for CBX6 (unknown origin).
Series [3] is filed under the species Homo sapiens. In words: Selectivity ratio of Kd for CBX2 (unknown origin) to Kd for CBX8 (unknown origin).
For series [4], the target named is T1, Chromobox protein homolog 6 (Homo sapiens, UniProt O95503).
T1 sequence (O95503 whole entry): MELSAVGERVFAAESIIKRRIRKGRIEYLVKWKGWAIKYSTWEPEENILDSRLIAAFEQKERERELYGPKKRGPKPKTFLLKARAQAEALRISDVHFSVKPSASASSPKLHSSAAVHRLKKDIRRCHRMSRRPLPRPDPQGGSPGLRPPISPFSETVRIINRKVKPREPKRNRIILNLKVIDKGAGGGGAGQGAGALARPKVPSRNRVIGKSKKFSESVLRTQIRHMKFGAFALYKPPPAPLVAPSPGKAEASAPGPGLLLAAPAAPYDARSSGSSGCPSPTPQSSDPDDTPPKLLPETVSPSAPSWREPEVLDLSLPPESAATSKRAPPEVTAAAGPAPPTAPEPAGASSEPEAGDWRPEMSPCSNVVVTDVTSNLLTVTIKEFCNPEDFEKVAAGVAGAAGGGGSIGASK
In words: Binding affinity to CBX6 (unknown origin) assessed as dissociation constant by fluorescence polarization analysis. Background: In fluorescence polarisation assays a small probe gives low polarisation when free and higher when bound to something large.

The species named for series [5] is Homo sapiens. In words: Selectivity ratio of Kd for CBX7 (unknown origin) to Kd for CBX8 (unknown origin).
Series [6] deals with T2, Chromobox protein homolog 8 (Homo sapiens, UniProt Q9HC52).
T2 sequence (Q9HC52 whole entry): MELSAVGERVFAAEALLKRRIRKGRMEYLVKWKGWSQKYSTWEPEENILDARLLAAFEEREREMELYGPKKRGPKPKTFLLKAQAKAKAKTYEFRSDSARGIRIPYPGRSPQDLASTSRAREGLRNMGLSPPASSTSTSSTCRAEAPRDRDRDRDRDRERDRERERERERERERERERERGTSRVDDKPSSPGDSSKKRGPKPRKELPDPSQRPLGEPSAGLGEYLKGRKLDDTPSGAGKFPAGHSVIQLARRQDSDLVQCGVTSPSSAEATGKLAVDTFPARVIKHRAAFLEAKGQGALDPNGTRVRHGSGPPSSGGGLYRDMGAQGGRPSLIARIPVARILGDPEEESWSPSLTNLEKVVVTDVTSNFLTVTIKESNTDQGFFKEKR
The series can be described thus: Binding affinity to CBX8 (unknown origin) assessed as dissociation constant by fluorescence polarization analysis.

Series [7] has as its target T3, Chromobox protein homolog 7 (Homo sapiens, UniProt O95931).
T3 sequence (O95931 whole entry): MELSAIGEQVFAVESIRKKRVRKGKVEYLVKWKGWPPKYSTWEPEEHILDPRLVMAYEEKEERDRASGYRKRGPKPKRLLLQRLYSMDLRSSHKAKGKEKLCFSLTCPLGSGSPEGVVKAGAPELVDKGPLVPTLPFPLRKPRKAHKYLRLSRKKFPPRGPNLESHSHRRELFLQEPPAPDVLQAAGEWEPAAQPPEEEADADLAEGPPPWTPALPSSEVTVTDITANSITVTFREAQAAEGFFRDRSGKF
In words: Binding affinity to CBX7 (unknown origin) assessed as dissociation constant by fluorescence polarization analysis.

Series [8] has as its target T4, E3 SUMO-protein ligase CBX4 (Homo sapiens, UniProt O00257).
T4 sequence (O00257 whole entry): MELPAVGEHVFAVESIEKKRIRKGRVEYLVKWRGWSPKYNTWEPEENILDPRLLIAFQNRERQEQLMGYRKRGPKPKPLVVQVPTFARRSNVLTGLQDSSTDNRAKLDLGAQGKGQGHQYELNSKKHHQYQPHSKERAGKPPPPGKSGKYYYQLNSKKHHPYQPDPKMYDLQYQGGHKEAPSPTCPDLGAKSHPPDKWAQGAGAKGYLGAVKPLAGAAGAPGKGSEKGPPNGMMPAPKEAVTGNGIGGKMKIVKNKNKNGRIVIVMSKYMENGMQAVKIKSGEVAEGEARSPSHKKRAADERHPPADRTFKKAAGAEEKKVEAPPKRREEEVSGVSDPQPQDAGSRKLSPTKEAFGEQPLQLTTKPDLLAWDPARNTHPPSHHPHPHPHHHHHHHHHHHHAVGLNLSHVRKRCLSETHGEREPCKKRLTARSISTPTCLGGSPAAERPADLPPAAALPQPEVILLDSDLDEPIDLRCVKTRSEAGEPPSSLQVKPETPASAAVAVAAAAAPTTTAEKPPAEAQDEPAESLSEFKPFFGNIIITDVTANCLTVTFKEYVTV
The series can be described thus: Binding affinity to CBX4 (unknown origin) assessed as dissociation constant by fluorescence polarization analysis.

For series [9], the target named is T5, Chromobox protein homolog 2 (Homo sapiens, UniProt Q14781).
T5 sequence (Q14781 whole entry): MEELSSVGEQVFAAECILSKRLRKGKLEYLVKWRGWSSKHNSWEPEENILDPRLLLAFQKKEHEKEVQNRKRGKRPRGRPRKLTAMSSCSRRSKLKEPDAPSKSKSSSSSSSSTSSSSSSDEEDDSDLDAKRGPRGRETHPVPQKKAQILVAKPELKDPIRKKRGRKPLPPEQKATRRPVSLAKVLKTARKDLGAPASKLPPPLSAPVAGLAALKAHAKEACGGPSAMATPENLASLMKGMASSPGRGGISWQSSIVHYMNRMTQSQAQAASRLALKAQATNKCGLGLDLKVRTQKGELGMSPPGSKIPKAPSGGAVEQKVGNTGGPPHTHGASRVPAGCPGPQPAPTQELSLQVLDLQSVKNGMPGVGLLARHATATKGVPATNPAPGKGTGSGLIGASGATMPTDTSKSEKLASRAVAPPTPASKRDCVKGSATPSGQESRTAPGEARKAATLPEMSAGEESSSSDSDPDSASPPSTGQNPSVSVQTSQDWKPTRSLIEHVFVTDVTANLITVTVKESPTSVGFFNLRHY
In words: Binding affinity to CBX2 (unknown origin) assessed as dissociation constant by fluorescence polarization analysis.

For series [10], the species on record is Homo sapiens. The series can be described thus: Selectivity ratio of Kd for CBX1 (unknown origin) to Kd for CBX8 (unknown origin).
Series [11] addresses Chromobox protein homolog 1 (Homo sapiens, UniProt P83916). The series can be described thus: Binding affinity to CBX1 (unknown origin) assessed as dissociation constant by fluorescence polarization analysis.
The target in series [12] is T3, Chromobox protein homolog 7. In words: Inhibition of CBX7 (unknown origin) assessed as […] by competitive FP assay.
The target in series [13] is T1, Chromobox protein homolog 6. The series can be described thus: Inhibition of CBX6 (unknown origin) assessed as […] by competitive FP assay.
Series [14] addresses T2, Chromobox protein homolog 8. The series can be described thus: Inhibition of CBX8 (unknown origin) assessed as […] by competitive FP assay.
Series [15] is filed under the species Homo sapiens. In words: Selectivity ratio of IC50 for CBX7 (unknown origin) to IC50 for CBX8 (unknown origin).
The species named for series [16] is Homo sapiens. The series can be described thus: Selectivity ratio of IC50 for CBX4 (unknown origin) to IC50 for CBX7 (unknown origin).
Series [17] deals with TOV21G. In words: Effect on cell cycle in human TOV21G cells by measuring cells distribution at G1 phase. The format is cell-based.
The nature of series [18]: Drug uptake in nucleus of human PC3 cells by live cell imaging analysis. The class given is ADME, cell-based. The settings on record: pc-3.
For series [19], the system named is TOV21G. In words: Effect on cell cycle in human TOV21G cells by measuring cells distribution at S phase. The format is cell-based.
A short description of series [20]: Drug uptake in cytoplasm of human TOV21G cells by live cell imaging analysis. The format is ADME, cell-based.
The nature of series [21]: Drug uptake in human TOV21G cells by flow cytometric analysis. The class given is ADME, cell-based.
A short description of series [22]: Drug uptake in human PC3 cells assessed as endosomal entrapment by measuring characteristic punctate dots in the cytoplasm at 10 uM by cell imaging analysis. The class given is ADME, cell-based. The following applies: pc-3, 10 µM.
The nature of series [23]: Drug uptake in cytoplasm of human PC3 cells by live cell imaging analysis. The settings on record: pc-3. The class given is ADME, cell-based.
In series [24] the test system is TOV21G. In words: Effect on cell cycle in human TOV21G cells by measuring cells distribution at G0 phase. The class given is cell-based.
Series [25] is described as follows: Drug uptake in nucleus of human TOV21G cells by live cell imaging analysis. The class given is ADME, cell-based.
Series [26] has as its system TOV21G. The series can be described thus: Effect on cell cycle in human TOV21G cells by measuring cells distribution at G2/M phase. The class given is cell-based.
A short description of series [27]: Drug uptake in human TOV21G cells assessed as endosomal entrapment by measuring characteristic punctate dots in the cytoplasm at 10 uM by cell imaging analysis. The class given is ADME, cell-based.

Chromobox protein homolog 1, sequence (P83916 whole entry): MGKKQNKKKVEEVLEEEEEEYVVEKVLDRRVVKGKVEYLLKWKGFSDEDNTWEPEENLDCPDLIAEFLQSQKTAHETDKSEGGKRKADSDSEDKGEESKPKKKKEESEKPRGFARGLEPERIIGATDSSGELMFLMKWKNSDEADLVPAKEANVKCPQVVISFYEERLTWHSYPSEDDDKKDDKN

The Kd is the free concentration of one partner at which half of the binding sites on the other are occupied at equilibrium, for simple one-to-one binding. Consider `CC[C@H](NC(=O)[C@H](Cc1ccccc1)NC(=O)[C@H](Cc1ccccc1)NC(C)=O)C(=O)N[C@H](C(=O)N[C@@H](CCCC[N+](C)(C)C)C(=O)N[C@@H](CO)C(=O)N[C@@H](CCC(=O)O)C(=O)N[C@@H](CCCCNC(=S)Nc1ccc(-c2c3ccc(=O)cc-3oc3cc(O)ccc23)c(C(=O)O)c1)C(N)=O)C1CCCC1` (Ac-FF[Abu][Gly(cPent)][Lys(Me3)]SEK(X1)-NH2), for which the Selectivity ratio is 14 to 135 in series [1]; 4 in series [2]; 14 to 135 in series [3]; 2 in [5]; 14 to 135 in series [10]. Besides, the Kd in [4] amounted to 400 nM; in [6], 700 nM; in series [7], 1500 nM; in series [8] it was 11300 nM; in series [9] it was 10000 nM; in series [11], 99000 nM.
For orientation: IC50 means the concentration that inhibits the measured activity by half. As for `CC[C@H](NC(=O)[C@H](Cc1ccccc1)NC(=O)c1ccc(Br)cc1)C(=O)N[C@H](C(=O)N[C@@H](CCCC[N+](C)(C)C)C(=O)N[C@@H](CO)C(=O)N[C@@H](CCC(=O)O)C(N)=O)C1CCCC1` ({Benzoyl(4-Br)}-F[Abu][Gly(cPent)][Lys(Me3)]SE-NH2), the IC50 in series [12] is 8300 nM; in series [13], 2800 nM; in [14], 3800 nM. In addition, the Ratio IC50 turned out to be 2 in series [15] and 10 in [16].
Take `CC(C)C[C@H](NC(=O)[C@H](C)NC(=O)[C@H](Cc1ccccc1)NC(=O)[C@H](Cc1ccccc1)NC(=O)CCNC(=S)Nc1ccc(-c2c3ccc(=O)cc-3oc3cc(O)ccc23)c(C(=O)O)c1)C(=O)N[C@@H](CCCC[N+](C)(C)C)C(=O)N[C@@H](CO)C(N)=O` ({X1-βAla}-FFAL[Lys(Me3)]S-NH2): the Activity result in [17], in series [19], in [24] and in series [26] was “Non-Toxic” throughout. Further, the Drug uptake entry is on record as “Not Active” in [18]; “Not Active” in [20]; “Active” in series [21]; “Active” in series [22]; “Not Active” in series [23]; “Not Active” in series [25]. Further, the Drug uptake result in [27] is “Active”. Also, the Kd in series [4] turned out to be 1100 nM; in series [6], 1700 nM; in series [7] it was 1600 nM; in [8], 1700 nM; in series [9], 3100 nM; in series [11], 47000 nM.
